Experimental findings from ChEMBL document CHEMBL2062394, “Azide-alkyne cycloaddition en route to novel 1H-1,2,3-triazole tethered isatin conjugates with in vitro cytotoxic evaluation” (Eur J Med Chem, 2012) are described below.

Bounds are passed on as bounds.

The test system of test [1] is PC-3. The test can be described thus: Growth inhibition of human PC3 cells at 10 uM after 48 hrs by SRB assay. Type of test: functional. Particulars: PC-3, 48 h, read-out: GI. (Sulforhodamine B stains cellular protein and so reports cell mass.)
In test [2] the test system is Caco-2. The test can be described thus: Growth inhibition of human Caco2 cells at 50 uM after 48 hrs by SRB assay. Particulars: Caco-2, 48 h, read-out: GI. Type of test: functional.
Test [3] relates to A549. The test can be described thus: Growth inhibition of human A549 cells at 100 uM after 48 hrs by SRB assay. Type of test: functional. Particulars: A549, 48 h, read-out: GI.
The subject of test [4] is A549. The test can be described thus: Growth inhibition of human A549 cells at 50 uM after 48 hrs by SRB assay. Type of test: functional. Particulars: A549, 48 h, read-out: GI.
In test [5] the test system is A549. The test is described as follows: Growth inhibition of human A549 cells at 10 uM after 48 hrs by SRB assay. Type of test: functional. Particulars: A549, 48 h, read-out: GI.
The test system of test [6] is Caco-2. The test is described as follows: Growth inhibition of human Caco2 cells at 100 uM after 48 hrs by SRB assay. Type of test: functional. As to conditions: Caco-2, 48 h, read-out: GI.
Test [7] concerns THP-1. The test is described as follows: Growth inhibition of human THP1 cells after 48 hrs by SRB assay. Type of test: functional, cell-based. Particulars: for IC50: THP-1, 48 h.
Test [8] concerns Caco-2. The test can be described thus: Growth inhibition of human Caco2 cells at 10 uM after 48 hrs by SRB assay. Type of test: functional. Particulars: Caco-2, 48 h, read-out: GI.
Test [9] has as its system Caco-2. The test is described as follows: Growth inhibition of human Caco2 cells after 48 hrs by SRB assay. The class given is functional, cell-based. Particulars: for IC50: Caco-2, 48 h.
The subject of test [10] is A549. The test is described as follows: Growth inhibition of human A549 cells after 48 hrs by SRB assay. Particulars: for IC50: A549, 48 h. The class given is functional, cell-based.
Test [11] concerns THP-1. The test can be described thus: Growth inhibition of human THP1 cells at 100 uM after 48 hrs by SRB assay. Type of test: functional. Particulars: THP-1, 48 h, read-out: GI.
In test [12] the test system is THP-1. The test is described as follows: Growth inhibition of human THP1 cells at 10 uM after 48 hrs by SRB assay. The class given is functional. Particulars: THP-1, 48 h, read-out: GI.
For test [13], the system named is PC-3. The test is described as follows: Growth inhibition of human PC3 cells at 50 uM after 48 hrs by SRB assay. The class given is functional. As to conditions: PC-3, 48 h, read-out: GI.
Test [14] deals with PC-3. The test is described as follows: Growth inhibition of human PC3 cells at 100 uM after 48 hrs by SRB assay. Type of test: functional. Particulars: PC-3, 48 h, read-out: GI.
Test [15] deals with PC-3. The test is described as follows: Growth inhibition of human PC3 cells after 48 hrs by SRB assay. As to conditions: for IC50: PC-3, 48 h. The class given is functional, cell-based.
Test [16] concerns THP-1. The test can be described thus: Growth inhibition of human THP1 cells at 50 uM after 48 hrs by SRB assay. Type of test: functional. Particulars: THP-1, 48 h, read-out: GI.

As to `O=C1C(=O)N(CCn2cc(CN3C(=O)C(=O)c4cc(Br)ccc43)nn2)c2ccc(Cl)cc21`, the inhibition of growth at 10 µM was 29% with PC-3 [1], 10% in the test on A549 [5], 36% with Caco-2 [8] and 28% in the test on THP-1 [12]. Further, the inhibition of growth at 50 µM in the test on Caco-2 [2] turned out to be 57%; with A549 [4], 83%; in the test on PC-3 [13], 43%; in the test with THP-1 [16] it was 82%. Moreover, the inhibition of growth at 100 µM in the test with A549 [3] was 98%; with Caco-2 [6], 68%; in the test on THP-1 [11], 90%; in the test on PC-3 [14] it was 70%. The “growth inhibition (GI)” value in the test on THP-1 [7], with Caco-2 [9], in the test on A549 [10] and in the test on PC-3 [15] was “Dose-dependent effect” in each case. Besides, the IC50 (commonly the midpoint of a concentration-inhibition curve) in the test on THP-1 [7] was determined as 26.9 µM; in the test on Caco-2 [9] it was 32.2 µM; with A549 [10] it was 42.2 µM; in the test on PC-3 [15] it was 51.4 µM.
`O=C1C(=O)N(CCn2cc(CN3C(=O)C(=O)c4cc(Br)ccc43)nn2)c2ccccc21`: the inhibition of growth at 10 µM was 94% with PC-3 [1], 41% in the test on A549 [5], 1% in the test on Caco-2 [8] and 10% in the test with THP-1 [12]. Further, the inhibition of growth at 50 µM is 10% in the test on Caco-2 [2], 96% in the test on A549 [4], 99% in the test with PC-3 [13] and 53% in the test on THP-1 [16]. The inhibition of growth at 100 µM was 97% with A549 [3], 25% with Caco-2 [6], 88% in the test on THP-1 [11] and 100% in the test on PC-3 [14]. Further, the “growth inhibition (GI)” value in the test on THP-1 [7], in the test on Caco-2 [9], in the test with A549 [10] and in the test on PC-3 [15] was “Dose-dependent effect” throughout. Besides, the IC50 in the test with THP-1 [7] is 51.9 µM; in the test with Caco-2 [9] it was more than 100 µM; with A549 [10] it was 14.6 µM; with PC-3 [15] it was less than 1 µM.
For the compound `O=C1C(=O)N(CCn2cc(CN3C(=O)C(=O)c4cc(F)ccc43)nn2)c2ccccc21`, the inhibition of growth at 10 µM in the test on PC-3 [1] came out at 20%; with A549 [5], 11%; in the test with Caco-2 [8], 0%; with THP-1 [12], 10%. Besides, the inhibition of growth at 50 µM in the test with Caco-2 [2] worked out at 1%; with A549 [4], 97%; in the test on PC-3 [13], 98%; with THP-1 [16], 96%. The inhibition of growth at 100 µM in the test with A549 [3] was found to be 99%; in the test on Caco-2 [6], 22%; with THP-1 [11], 100%; in the test on PC-3 [14] it was 100%. Moreover, the “growth inhibition (GI)” value in the test with THP-1 [7], in the test with Caco-2 [9], in the test with A549 [10] and in the test on PC-3 [15] was “Dose-dependent effect” each time. The IC50 in the test with THP-1 [7] is 39.9 µM; in the test on Caco-2 [9], more than 100 µM; in the test on A549 [10], 38.9 µM; in the test on PC-3 [15], 30.1 µM.
